These results are taken from US20260015350A1, “AZAQUINAZOLINE PAN-KRAS INHIBITORS” (Mirati Therapeutics, Inc., priority 2022, published 2026).

For one assay, the target named is T1, KRas^G12D (Homo sapiens, UniProt P01116, G12D).
T1 construct: Biotinylated KRas (corresponding to amino acids 1-169, produced at Accelegan Inc.); biotin (biotinylated); purchased Accelegan Inc
As to the kind of experiment: KRas binding assay (TR-FRET tracer displacement), KRas G12D. A general note: Time-resolved FRET reads energy transfer from a long-lived donor to a nearby acceptor.

The next assay deals with T2, KRas^G12R (Homo sapiens, UniProt P01116, G12R).
T2 construct: Biotinylated KRas (corresponding to amino acids 1-169, produced at Accelegan Inc.); biotin (biotinylated); purchased Accelegan Inc
T2 sequence (P01116 1-169 isoform P01116-2 G12R): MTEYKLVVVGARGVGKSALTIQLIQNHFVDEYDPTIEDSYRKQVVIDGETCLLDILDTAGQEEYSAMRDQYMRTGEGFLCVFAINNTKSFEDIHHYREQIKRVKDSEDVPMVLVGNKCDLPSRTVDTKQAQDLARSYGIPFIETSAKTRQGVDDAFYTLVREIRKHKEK
Description: KRas binding assay (TR-FRET tracer displacement), KRas G12R.

The target of the next assay is T3, KRas^G12V (Homo sapiens, UniProt P01116, G12V).
T3 construct: Biotinylated KRas (corresponding to amino acids 1-169, produced at Accelegan Inc.); biotin (biotinylated); purchased Accelegan Inc
T3 sequence (P01116 1-169 isoform P01116-2 G12V): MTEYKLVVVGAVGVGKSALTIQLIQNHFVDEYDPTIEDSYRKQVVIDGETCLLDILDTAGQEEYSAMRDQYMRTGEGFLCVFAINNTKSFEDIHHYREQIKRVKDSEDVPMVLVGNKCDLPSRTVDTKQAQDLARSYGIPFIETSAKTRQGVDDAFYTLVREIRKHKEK
As to the kind of experiment: KRas binding assay (TR-FRET tracer displacement), KRas G12V.

Assay [1] has as its system KRas-mediated phosphorylation of ERK in MKN1 cells. As to the kind of experiment: Inhibition of KRas-mediated phosphorylation of ERK (Cisbio HTRF pERK), MKN1 cells. It is filed as cell-based. Conditions: Homo sapiens, MKN-1. As to the method: (§1) Inhibition of KRas Phosphorylation of ERK (HTRF) by Exemplary Compounds of Formula (I)
(§2) Cisbio HTRF Advanced PERK Assay Catalog #64AERPEH
(§3) Day 1: Seed 6,000 cells/well-25 μl/well in 384-well white solid bottom plate; RPM1_10% FBS. Incubate overnight at 37° C./5% CO2.
(§4) Incubate for 4 hours at room temperature covered.
(§5) Read HTRF using ClarioStar

Assay [2] has as its system KRas-mediated phosphorylation of ERK in PSN1 cells. Description: Inhibition of KRas-mediated phosphorylation of ERK (Cisbio HTRF pERK), PSN1 cells. It is filed as cell-based. To be noted: Homo sapiens. As to the method:
as §1, §2, §3, §4, §5

In assay [3] the test system is KRas-mediated phosphorylation of ERK in AsPC-1 cells. As to the kind of experiment: Inhibition of KRas-mediated phosphorylation of ERK (Cisbio HTRF pERK), AsPC-1 cells. In kind it is cell-based. To be noted: Homo sapiens, ASPC1, AsPC-1 cells; HTRF pERK. The procedure, abridged:
(§6)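 Each compound was tested at 10 concentrations, threefold apart with 10 uM the highest, for 3 hrs on 6,000 seeded cells; final DMSO was 0.8% and Trametinib (0.2 uM) served as Min control. Lysed cells were analysed for pERK by HTRF.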

For assay [4], the system named is KRas-mediated phosphorylation of ERK in H727 cells. As to the kind of experiment: Inhibition of KRas-mediated phosphorylation of ERK (Cisbio HTRF pERK), H727 cells. It is filed as cell-based. To be noted: Homo sapiens, NCI-H727, H727 cells; HTRF pERK. The method in brief:
as §6

Structures are written as SMILES.

Usually IC50 stands for the concentration at which inhibition is half-maximal. A higher IC50 goes with lower potency.

T1 sequence (P01116 1-169 isoform P01116-2 G12D): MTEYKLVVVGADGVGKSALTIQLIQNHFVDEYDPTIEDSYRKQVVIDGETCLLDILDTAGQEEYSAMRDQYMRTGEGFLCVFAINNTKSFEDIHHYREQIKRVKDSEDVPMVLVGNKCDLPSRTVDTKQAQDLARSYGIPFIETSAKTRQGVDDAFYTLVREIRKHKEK

`CCc1c(F)ccc2cc(O)cc(-c3ncc4c(N5CC6CCCC(C6)C5)nc(OC[C@@]56CCCN5C[C@H](F)C6)nc4c3F)c12` [Example 551, 4-(4-(3-azabicyclo[3.3.1]nonan-3-yl)-8-fluoro-2-(((2R,7aS)-2-fluorotetrahydro-1H-pyrrolizin-7a(5H)-yl)methoxy)pyrido[4,3-d]pyrimidin-7-yl)-5-ethyl-6-fluoronaphthalen-2-ol]: the IC50 at KRas^G12D was 127 nM; at KRas^G12R, 27 nM; on KRas^G12V, 32 nM; in assay [1], 1460 nM; in assay [2] it was over 10000 nM; in assay [3] it was 2500 nM. The IC50 in assay [4] worked out at 814 nM.

Turning to `CCc1c(F)ccc2cc(O)cc(-c3ncc4c(N5C[C@@H]6OCCN[C@@H]6C5)nc(OC[C@@]56CCCN5C[C@H](F)C6)nc4c3F)c12` [Example 555, 5-ethyl-6-fluoro-4-(8-fluoro-2-(((2R,7aS)-2-fluorotetrahydro-1H-pyrrolizin-7a(5H)-yl)methoxy)-4-(hexahydropyrrolo[3,4-b][1,4]oxazin-6 (2H)-yl)pyrido[4,3-d]pyrimidin-7-yl)naphthalen-2-ol], the half-inhibitory concentration (IC50) at KRas^G12D was 2030 nM; on KRas^G12R, 2030 nM; on KRas^G12V it was 512 nM; in assay [1], 4020 nM; in assay [2], over 10000 nM; in assay [3], over 10000 nM. The molecule further displayed a half-maximal inhibitory concentration (IC50) in assay [4] of over 10000 nM.

For the molecule `CCc1c(F)ccc2cc(O)cc(-c3ncc4c(N5CCCn6cnnc6C5)nc(OC[C@@]56CCCN5C[C@H](F)C6)nc4c3F)c12` [Example 563, 4-(4-(6,7-dihydro-5H-[1,2,4]triazolo[4,3-a][1,4]diazepin-8 (9H)-yl)-8-fluoro-2-(((2R,7aS)-2-fluorotetrahydro-1H-pyrrolizin-7a(5H)-yl)methoxy)pyrido[4,3-d]pyrimidin-7-yl)-5-ethyl-6-fluoronaphthalen-2-ol], the IC50 at KRas^G12D is 85 nM; at KRas^G12R it was 238 nM; on KRas^G12V, 100 nM; in assay [1], over 10000 nM; in assay [2] it was over 10000 nM; in assay [3] it was over 10000 nM. In addition, the half-maximal inhibitory concentration (IC50) in assay [4] is over 10000 nM.

As for `CCc1c(F)ccc2cc(O)cc(-c3ncc4c(NCC5CC(CO)NC5=O)nc(OC[C@@]56CCCN5C[C@H](F)C6)nc4c3F)c12` (stereo partly drawn) [Example 575, 3-(((7-(8-ethyl-7-fluoro-3-hydroxynaphthalen-1-yl)-8-fluoro-2-(((2R,7aS)-2-fluorotetrahydro-1H-pyrrolizin-7a(5H)-yl)methoxy)pyrido[4,3-d]pyrimidin-4-yl)amino)methyl)-5-(hydroxymethyl)pyrrolidin-2-one], the half-inhibitory concentration (IC50) was 25 nM at KRas^G12D; 27 nM on KRas^G12R; 7 nM on KRas^G12V; 417 nM in assay [1]; over 10000 nM in assay [2]; over 10000 nM in assay [3]. Also, the IC50 in assay [4] is over 10000 nM.

In the case of `CCc1c(F)ccc2cc(O)cc(-c3ncc4c(N5CCC(S(C)(=N)=O)C5)nc(OC[C@@]56CCCN5C[C@H](F)C6)nc4c3F)c12` (stereo partly drawn) [Example 580, 5-ethyl-6-fluoro-4-(8-fluoro-2-(((2R,7aS)-2-fluorohexahydro-1H-pyrrolizin-7a-yl)methoxy) 4-(3-(S-methylsulfonimidoyl)pyrrolidin-1-yl)pyrido[4,3-d]pyrimidin-7-yl)naphthalen-2-ol], the concentration for half-maximal inhibition (IC50) was 296 nM at KRas^G12D; 30 nM at KRas^G12R; 81 nM on KRas^G12V; 476 nM in assay [1]; over 10000 nM in assay [2]; over 10000 nM in assay [3]. The molecule further had an IC50 in assay [4] of over 10000 nM.

Take `CCc1c(F)ccc2cc(O)cc(-c3ncc4c(N5CCCS(=O)(=O)CC5)nc(OC[C@@]56CCCN5C[C@H](F)C6)nc4c3F)c12` [Example 583, 4-(7-(8-ethyl-7-fluoro-3-hydroxynaphthalen-1-yl)-8-fluoro-2-(((2R,7aS)-2-fluorohexahydro-1H-pyrrolizin-7a-yl)methoxy)pyrido[4,3-d]pyrimidin-4-yl)-1,4-thiazepane 1,1-dioxide]: the IC50 on KRas^G12D is 33 nM; on KRas^G12R, 3 nM; on KRas^G12V it was 14 nM; in assay [1], 312 nM; in assay [2] it was over 10000 nM; in assay [3] it was 5380 nM. The molecule also returned a concentration for half-maximal inhibition (IC50) in assay [4] of 2500 nM.

For the molecule `CCc1c(F)ccc2cc(O)cc(-c3ncc4c(N5CCC6CNC(=O)NC6C5)nc(OC[C@@]56CCCN5C[C@H](F)C6)nc4c3F)c12` (stereo partly drawn) [Example 592, 7-(7-(8-ethyl-7-fluoro-3-hydroxynaphthalen-1-yl)-8-fluoro-2-(((2R,7aS)-2-fluorohexahydro-1H-pyrrolizin-7a-yl)methoxy)pyrido[4,3-d]pyrimidin-4-yl)octahydropyrido[3,4-d]pyrimidin-2(1H)-one], the half-maximal inhibitory concentration (IC50) at KRas^G12D was 790 nM; at KRas^G12R, 281 nM; at KRas^G12V, 119 nM; in assay [1] it was over 10000 nM; in assay [2], over 10000 nM; in assay [3], over 10000 nM. Also, the IC50 in assay [4] was over 10000 nM.

Take `CCc1c(F)ccc2cc(O)cc(-c3ncc4c(N5CCCC6(CCCCO6)C5)nc(OC[C@@]56CCCN5C[C@H](F)C6)nc4c3F)c12` (stereo partly drawn) [Example 594, 5-ethyl-6-fluoro-4-(8-fluoro-2-(((2R,7aS)-2-fluorotetrahydro-1H-pyrrolizin-7a(5H)-yl)methoxy)-4-(1-oxa-8-azaspiro[5.5]undecan-8-yl)pyrido[4,3-d]pyrimidin-7-yl)naphthalen-2-ol]: the half-maximal inhibitory concentration (IC50) at KRas^G12D is 91 nM; at KRas^G12R it was 53 nM; on KRas^G12V, 80 nM; in assay [1], 2350 nM; in assay [2], over 10000 nM; in assay [3], 2810 nM. The molecule also gave a half-maximal inhibitory concentration (IC50) in assay [4] of 2290 nM.

`CCc1c(F)ccc2cc(O)cc(-c3ncc4c(N5CCC(c6ccc(=O)[nH]n6)C5)nc(OC[C@@]56CCCN5C[C@H](F)C6)nc4c3F)c12` (stereo partly drawn) [Example 608, 6-(1-(7-(8-ethyl-7-fluoro-3-hydroxynaphthalen-1-yl)-8-fluoro-2-(((2R,7aS)-2-fluorotetrahydro-1H-pyrrolizin-7a(5H)-yl)methoxy)pyrido[4,3-d]pyrimidin-4-yl)pyrrolidin-3-yl)pyridazin-3 (2H)-one]: the concentration for half-maximal inhibition (IC50) at KRas^G12D is 1250 nM; at KRas^G12R it was 267 nM; at KRas^G12V, 88 nM; in assay [1] it was over 10000 nM; in assay [2], over 10000 nM; in assay [3] it was over 10000 nM. For the same molecule, the 50% inhibitory concentration (IC50) in assay [4] is over 10000 nM.

Turning to `CCc1c(F)ccc2cc(O)cc(-c3ncc4c(NCC5(C)CNS(=O)(=O)N5)nc(OC[C@@]56CCCN5C[C@H](F)C6)nc4c3F)c12` (stereo partly drawn) [Example 609, 3-(((7-(8-ethyl-7-fluoro-3-hydroxynaphthalen-1-yl)-8-fluoro-2-(((2R,7aS)-2-fluorohexahydro-1H-pyrrolizin-7a-yl)methoxy)pyrido[4,3-d]pyrimidin-4-yl)amino)methyl)-3-methyl-1,2,5-thiadiazolidine 1,1-dioxide], the IC50 at KRas^G12D was under 2 nM; on KRas^G12R, under 2 nM; on KRas^G12V, under 2 nM; in assay [1] it was 92 nM; in assay [2] it was over 10000 nM; in assay [3], 1390 nM. Further, 880 nM corresponded to half-maximal inhibition in assay [4] (IC50).

As to `CCc1c(F)ccc2cc(O)cc(-c3ncc4c(N5CCC(N6C(=O)CCC6=O)C5)nc(OC[C@@]56CCCN5C[C@H](F)C6)nc4c3F)c12` (stereo partly drawn) [Example 615, 1′-(7-(8-ethyl-7-fluoro-3-hydroxynaphthalen-1-yl)-8-fluoro-2-(((2R,7aS)-2-fluorotetrahydro-1H-pyrrolizin-7a(5H)-yl)methoxy)pyrido[4,3-d]pyrimidin-4-yl)-[1,3′-bipyrrolidine]-2,5-dione], the half-inhibitory concentration (IC50) was 1990 nM on KRas^G12D; 421 nM on KRas^G12R; 222 nM on KRas^G12V; 1530 nM in assay [1]; over 10000 nM in assay [2]; 7210 nM in assay [3]. The half-inhibitory concentration (IC50) in assay [4] was over 10000 nM.

For `CCc1c(F)ccc2cc(O)cc(-c3ncc4c(N5CCCCC(S(N)(=O)=O)C5)nc(OC[C@@]56CCCN5C[C@H](F)C6)nc4c3F)c12` (stereo partly drawn) [Example 633, 1-(7-(8-ethyl-7-fluoro-3-hydroxynaphthalen-1-yl)-8-fluoro-2-(((2R,7aS)-2-fluorohexahydro-1H-pyrrolizin-7a-yl)methoxy)pyrido[4,3-d]pyrimidin-4-yl)azepane-3-sulfonamide], the half-maximal inhibitory concentration (IC50) was 8850 nM at KRas^G12D; 6610 nM at KRas^G12R; 2820 nM at KRas^G12V; over 10000 nM in assay [1]; over 10000 nM in assay [2]; over 10000 nM in assay [3]. In addition, in assay [4], the half-maximal inhibitory concentration (IC50) is over 10000 nM.
